# Test results from patent publication US12643867B2, “Compositions and uses thereof” (University of Virginia Patent Foundation, priority 2017, dated 2026).
# Molecular target: T1, DGKE (Diacylglycerol kinase epsilon) (Homo sapiens, UniProt P52429)
# T1 construct: expressed in transfected cells; host or cells: SILAC HEK293T, membrane fraction
# T1 sequence (P52429 1-567): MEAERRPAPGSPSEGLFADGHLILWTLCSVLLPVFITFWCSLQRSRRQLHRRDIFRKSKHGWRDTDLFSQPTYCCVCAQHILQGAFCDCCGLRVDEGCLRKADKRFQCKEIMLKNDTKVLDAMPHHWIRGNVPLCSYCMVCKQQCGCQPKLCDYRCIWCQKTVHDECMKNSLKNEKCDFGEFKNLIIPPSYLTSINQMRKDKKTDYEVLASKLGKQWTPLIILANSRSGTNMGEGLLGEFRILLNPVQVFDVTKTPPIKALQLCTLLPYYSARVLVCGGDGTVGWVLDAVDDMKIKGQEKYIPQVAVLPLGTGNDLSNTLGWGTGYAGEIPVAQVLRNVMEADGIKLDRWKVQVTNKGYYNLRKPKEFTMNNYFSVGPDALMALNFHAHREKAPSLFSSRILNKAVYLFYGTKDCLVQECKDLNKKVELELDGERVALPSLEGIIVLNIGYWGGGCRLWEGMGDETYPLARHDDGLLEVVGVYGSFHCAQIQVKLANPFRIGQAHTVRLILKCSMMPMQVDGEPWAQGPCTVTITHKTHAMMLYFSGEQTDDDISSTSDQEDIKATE
# Assay: SILAC LC-MS ATP acyl phosphate probe competition, recombinant DGK-HEK293T lysates
# Type: binding
# Conditions: site DAGKa (K392); membrane fraction; ATP 1 mM; Ketanserin, Ritanserin 100 μM; RF001 1 mM
# From the text: Recombinant DGK proteins were produced by transient transfection of HEK293T cells with recombinant DNA. pDONR223-DGKK was a gift from William Hahn & David Root (Addgene plasmid #23487). pCSF107mT-GATEWAY-3′-FLAG was a gift from Todd Stukenberg (Addgene plasmid #67619). pCSF107mT-DGKK-FLAG construct was generated by recombination of the Addgene plasmids using the Gateway cloning system (Invitrogen). All other vectors were gifted to Dr. Kevin Lynch (University of Virginia, School of Medicine) by Dr. Kaoru Goto (Yamagata University, School of Medicine) and Dr. Fumio Sakane (Chiba University) and were kindly shared with us: pcDNA3-FLAG-DGKA (rat), pCMV-Tag2B-FLAG-DGKQ (human), pcDNA3-DGKE-3×Flag (human), and pCMV-SPORT6-HA-DGKZ (human). HEK293T cells were plated at a concentration of 400,000 cells in complete DMEM and grown to 50-60% confluency. A polyethyleneimine (PEI) stock solution was prepared (1 mg/mL, pH 7.4) and filter sterilized. Serum-free DMEM (600 μL) was mixed gently with 2.6 μg DNA and 20 μL of sterile PEI (1 mg/mL, pH 7.4) in a sterile microfuge tube. Mixtures were incubated for 30 min at 25° C. The mixture was then added drop-wise to each 10 cm^2 plate, rocked back and forth to mix, and placed back in the incubator. Cell pellets were harvested after two full days of growth, snap-frozen in liquid N2, and stored at −80° C. until use. Recombinant proteins were produced by transient transfection in SILAC HEK293T cells using the procedure described above, except that cells were plated at a concentration of 1×10^6 cells per 10 cm^2 plate and grown to ˜70% confluency prior to introducing transfection mixture.
# Cell pellets were resuspended in kinase buffer (Dulbecco's PBS (DPBS, Hyclone), 20 mM MgCl2, EDTA-free protease inhibitors (Pierce)) and then lysed by sonication (3×1 sec pulse, 20% amplitude). The cell lysates were then subjected to centrifugation (100,000×g, 45 min at 4° C.) to isolate the cytosolic fraction in the supernatant and the membrane fraction as a pellet. […] Protein concentrations were measured using the Bio-Rad DC protein assay. […]
row,"SILAC ratio, DGKE DAGKa probe-modified peptide",Structure (SMILES)
1,0.7,"Fc1ccc(C(=C2CCNCC2)c2ccc(F)cc2)cc1 [RF001, 4-(Bis(4-fluorophenyl)methylene) piperidine]"
2,1.3,O=C(c1ccc(F)cc1)C1CCN(CCn2c(=O)[nH]c3ccccc3c2=O)CC1 [Ketanserin]

row,Structure (SMILES),"SILAC ratio, DGKE DAGKa probe-modified peptide"
1,Cc1nc2sccn2c(=O)c1CCN1CCC(=C(c2ccc(F)cc2)c2ccc(F)cc2)CC1 [Ritanserin],1.0
